# Counter-ions that a name gives are not always drawn.
# What was measured:
# SH-SY5Y cells [1] = experiment: Neurite outgrowth (Outgrowth Fold Change) in undifferentiated SH-SY5Y cells; type: cell-based, human; conditions: for neurite outgrowth / differentiation over the concentration range: DFO compared with ApoTf; for neurite outgrowth or differentiation: FIG. 5; for neurogenesis / differentiation (neurite outgrowth): all proteins 0.2 mg/mL
# Experimental: (§1) Undifferentiated SH-SY5Y cells were seeded into 96 well clear bottom plates in media containing 0.1% FBS. A serum-free base media was utilized as recommended by the supplier for SH-SY5Y cells (Sigma, Cat #94030304-1VL). Twenty-four hours after seeding cells, a 3× stock solution of ApoTf, final concentrations indicated on the x-axis, in serum free base media was added to the cells. ApoTf was obtained and purified from pooled human plasma and dosed at a final concentration of 0.2 mg/mL. Cells were allowed to differentiate for 6 days. Neurite growth was assessed by imaging and image analysis. At the time of analysis, a 10× solution of Tubulin Tracker (Molecular Probes, T34075) and Hoechst 33342 (Molecular Probes #H3570) nuclear stain was prepared.
# Briefly, Tubulin Tracker dissolved in DMSO was diluted 1:1 with Pluronic F-127 and further diluted into HBSS to generate a 10× solution. Hoechst 33342 was added to the HBSS-Tubulin Tracker solution at 10 μg/mL to generate a 10× nuclear stain. The 10× staining solution (10 μL) was added directly to treated assay wells and incubated at 37° C. for 30 minutes. Following incubation, 110 μL of 0.4% Trypan Blue was added directly to assay wells and imaged on a Molecular Devices Nano imaging instrument. Nine images/well were acquired in the blue (Nuclei) and green (Tubulin) fluorescent channels for each image.
# (§2) After obtaining images, the MetaExpress Neurite Outgrowth analysis module (Molecular Devices) was used to identify cells, cell bodies, and quantify neurites. The total number of neurite branches were divided by the total number of cells imaged to account for different numbers of cells in each test well. The Outgrowth Fold Change was determined by setting the untreated control cells to a value of 1 with all other treatments shown relative to untreated control.
# HIF-1α = conditions: undifferentiated SH-SY5Y; US2016008437; cited from earlier work
# [2] = tested on: primary human brain cortex-derived neural progenitor cells; experiment: Differentiation of primary human neural progenitor cells to neurons and astrocytes; type: cell-based; conditions: ApoTf 0.8 mg/mL, 72 hours
# Experimental: Neural progenitor cells maintained as neurospheres were obtained from Lonza (PT-2599). Cells were thawed from a frozen vial of neurospheres and cultured in Human NeuroCult™ NS-A Complete Proliferation media (Stemcell Technologies) for 2 weeks. Neurospheres were dissociated to single cells and plated in Laminin coated wells of assay plates. The neural progenitor cells were seeded in NeuroCult™ NS-A Basal media containing 1/10th concentration of the recommended proliferation supplements, in the absence or presence of ApoTf (0.8 mg/mL) for 72 hours. At the time of analysis, cells were fixed with paraformaldehyde, stained for β-III-tubulin (R&D Systems, MAB1195) and GFAP (Invitrogen, PA3-16727), and imaged on a Molecular Devices Nano imaging instrument. Image analysis was performed by assessing the relative numbers of cells staining positive for β-III-tubulin or GFAP. Values for the indicated conditions are shown with standard deviations as “% β-III-Tubulin Positive” cells (FIG. 2A) or “% GFAP Positive” cells (FIG. 2B).
# SH-SY5Y cells [3] = experiment: Cell number / proliferation of SH-SY5Y cells; type: cell-based, human
# Experimental: as §1, with “ApoTf was obtained and purified from pooled human plasma and dosed at a final concentration of 0.2 mg/mL.” left out
# Briefly, Tubulin Tracker dissolved in DMSO was diluted 1:1 with Pluronic F-127 and further diluted into HBSS to generate a 10× solution. Hoechst 33342 was added to the HBSS-Tubulin Tracker solution at 10 μg/mL to generate a 10× nuclear stain. The 10× staining solution (10 μL) was added directly to treated assay wells and incubated at 37° C. for 30 minutes. […]
# as §2, with “The total number of neurite branches were divided by the total number of cells imaged to account for different numbers of cells in each test well.” left out
# SH-SY5Y cells [4] = experiment: β-III-tubulin staining intensity in SH-SY5Y cells; type: cell-based, human; conditions: FIG. 1D
# Experimental: In this experiment, the SH-SY5Y cells were differentiated as described supra. At the time of analysis, cells were fixed with paraformaldehyde, stained for β-III-tubulin (R&D Systems, MAB1195), and imaged on a Molecular Devices Nano imaging instrument. Image analysis was performed by assessing the fluorescent intensity of cells stained with β-III-tubulin. Background from secondary antibody alone was subtracted from all values. Values are shown with standard deviations as “β-III-Tubulin Staining Intensity” for the indicated conditions.
# [5] = tested on: MPTP-induced Parkinson's Disease in mice; experiment: Kinematic gait analysis in MPTP-induced Parkinson's Disease mice; type: in vivo, C57BI/6J mice; conditions: ApoTf 350 mg/kg i.p. once a day, days 1-7; analysis on day 7; n=15
# Experimental: Animal experiments were performed at Charles River Laboratories (Finland), as specified in the license authorized by the national Animal Experiment Board of Finland and according to the National Institutes of Health (Bethesda, Md., USA) guidelines for the care and use of laboratory animals. Eight to twelve-week-old, C57BI/6J mice were housed at a standard temperature (22±1° C.) and in a light-controlled environment (lights on from 7 am to 8 pm) with ad libitum access to food and water.
# Solutions of MPTP were prepared by dissolving MPTP hydrochloride in sterile saline at 2.42 mg/mL; corresponding to 2.0 mg/mL of active compound. To induce Parkinson's Disease, the MPTP was given by intraperitoneal injection twice a day at 20 mg/kg. […]
# The captured videos of each mouse were first converted to the software-readable format. […] Gait pattern and movement analysis assessed 100 different parameters, including but not limited to stride time, swing time during a stride, speed, step width, stance and interlimb coordination. The data was analysed by using principal component analysis (PCA). The overall gait analysis was based on the PCA of all parameters for each mouse, with the obtained value showing the overall differences, measured as a “distance”, between control mice and MPTP, or MPTP plus ApoTf mice. […]
# [6] = Iron saturation of transferrin samples by ICP-AES; type: physicochemical
# Experimental: Protein purity was determined by SDS-PAGE. Iron saturation levels were determined using ICP-AES in accordance with the procedures outlined in Manley et al., J Biol Inorg Chem (2009) 14:61-74, the contents of which are incorporated herein by reference.
# [7] = FIG. 1C, 0.1 mg/mL ApoTf vs untreated control
compound,measurement,setting,value
"CC(=O)N(O)CCCCCNC(=O)CCC(=O)N(O)CCCCCNC(=O)CCC(=O)N(O)CCCCCN [DFO, Deferoxamine mesylate, reference compound]",concentration of maximal neurite outgrowth,SH-SY5Y cells [1]; FIG. 3A,1 to 3 µM
same,neurite outgrowth / differentiation over the concentration range,SH-SY5Y cells [1]; FIG. 3A,little neurite formation beyond that concentration
"O=C(O)CNC(=O)c1c(O)c2ccccc2n(Cc2ccccc2)c1=O [IOX2, N-[[1,2-Dihydro-4-hydroxy-2-oxo-1-(phenylmethyl)-3-quinolinyl]carbonyl]-glycine, reference compound]",neurite outgrowth or differentiation,SH-SY5Y cells [1]; 4 μM IOX2,no effect was observable
same,neurite outgrowth or differentiation,SH-SY5Y cells [1]; IOX2-treated cells,no neurite outgrowth or differentiation was observed
same,concentration inducing up-regulation of HIF-1α,HIF-1α,1 µM
"C[C@@H](N)[C@H]1CC[C@H](C(=O)Nc2ccncc2)CC1.Cl.Cl [Y-27632, trans-4-[(1R)-1-Aminoethyl]-N-4-pyridinylcyclohexanecarboxamide dihydrochloride, reference compound]","neurogenic effect (neurite outgrowth), alone","SH-SY5Y cells [1]; FIG. 8, Y-27632 50 μM",strongly neurogenic
same,"neurogenic effect (neurite outgrowth), in the presence of ApoTf","SH-SY5Y cells [1]; FIG. 8, Y-27632 50 μM plus ApoTf 0.1 mg/mL",synergistic showing an effect beyond that exhibited by either molecule alone
"ApoTf: iron-free form of transferrin protein, purified from pooled human plasma",% β-III-tubulin positive cells (neurons),[2]; FIG. 2A,dramatically increases the percentage of cells differentiated to neurons
same,% GFAP positive cells (astrocytes),[2]; FIG. 2B,dramatically increases
same,cell numbers (cell proliferation),"SH-SY5Y cells [3]; FIG. 1B, up to 0.8 mg/mL apo-transferrin",concentration dependent increase in cell numbers
same,cell proliferation (nuclear staining),SH-SY5Y cells [3]; [7],profound effect on promoting cell proliferation
same,β-III-Tubulin Staining Intensity,SH-SY5Y cells [4],caused an increase in β-III-tubulin protein
same,"movement and gait (Distance from Control, PCA)",[5],significantly ameliorated
same,neurite outgrowth,"SH-SY5Y cells [1]; FIG. 1A, ApoTf up to 0.8 mg/mL, 6 days",induce neurite outgrowth in a dose dependent manner
same,neurite/tubulin outgrowth (tubulin staining),SH-SY5Y cells [1]; [7],promoting induction of neurite/tubulin outgrowth
same,neurite outgrowth / differentiation over the concentration range,SH-SY5Y cells [1]; FIG. 3A,continues to increase differentiation even up to 9.9 μM
same,neurogenesis / differentiation (neurite outgrowth),SH-SY5Y cells [1]; FIG. 3B,did induce neurogenesis
same,"differentiation (neurite outgrowth), factor combined with ApoTf","SH-SY5Y cells [1]; FIGS. 7A-7D, ApoTf 0.1 mg/mL plus neurotrophic factor",synergistic effect with other neurotrophic factors and peptides
same,Iron Saturation (%),[6],< 0.3%
"ApoTransferrin A: apo-transferrin sample, Grifols, prepared in house",Iron Saturation (%),[6],0.27%
"ApoTransferrin B: apo-transferrin sample, Grifols, prepared in house",Iron Saturation (%),[6],0.59%
"ApoTransferrin C: apo-transferrin sample, Grifols, prepared in house",Iron Saturation (%),[6],0.24%
"HoloTf: iron-saturated form of transferrin, purified from pooled human plasma [reference compound]",neurogenesis / differentiation (neurite outgrowth),SH-SY5Y cells [1]; FIG. 4,unable to induce differentiation
same,Iron Saturation (%),[6],100%
"recombinant ApoTf: recombinant wild-type human transferrin, SEQ ID NO: 1, expressed in 293-6E cells",neurogenesis / differentiation (neurite outgrowth),SH-SY5Y cells [1]; FIG. 3B,did induce neurogenesis

# From patent publication US20230263863A1, “COMPOSITIONS HAVING NEUROREGENERATIVE APPLICATIONS” (GRIFOLS WORLDWIDE OPERATIONS LIMITED, priority 2020, published 2023)
